Measurements taken from the supplement of paper PMC10307832.

Assays:
Assay in all cases: relative viability (nuclei count vs DMSO), 5 days (fraction); higher = more cells survive
CUDC-101 + Alpelisib = compound: C#Cc1cccc(Nc2ncnc3cc(OC)c(OCCCCCCC(=O)NO)cc23)c1 [CUDC-101] + Cc1nc(NC(=O)N2CCC[C@H]2C(N)=O)sc1-c1ccnc(C(C)(C)C(F)(F)F)c1 [Alpelisib] (partner 2 µM)
In short: (§1)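 A single step with final 0.05% Triton X-100, 1% formaldehyde and 1 ug/ml Hoechst fixed the cells and stained nuclei 5 days after treatment. Lung cancer cell lines in 1536-well plates had been treated by pin tool the day after seeding with one drug alone or a fixed anchor-drug dose plus five library-drug doses (not always all listed) in √10 steps, and nuclei were counted on 4× images. Relative viability is the ratio of nuclei in treated wells to nuclei in vehicle wells, taken as the median of duplicate plates.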

[1] = compound: C1=CC=C2C(=C1)N=C(S2)C(C#N)C3=NC(=NC=C3)NCCC4=CN=CC=C4 + COc1cc2c(Oc3ccc(NC(=O)C4(C(=O)Nc5ccc(F)cc5)CC4)cc3F)ccnc2cc1OCCCN1CCOCC1 [Foretinib] (partner 0.25 µM)
In short: as §1

[2] = compound: C1=CC=C2C(=C1)N=C(S2)C(C#N)C3=NC(=NC=C3)NCCC4=CN=CC=C4 + C[C@@H](Oc1cc(-c2cnn(C3CCNCC3)c2)cnc1N)c1c(Cl)ccc(F)c1Cl [Crizotinib] (partner 1 µM)
In short: as §1

NVP-TAE684 + OSI-027 = compound: COc1cc(N2CCC(N3CCN(C)CC3)CC2)ccc1Nc1ncc(Cl)c(Nc2ccccc2S(=O)(=O)C(C)C)n1 [NVP-TAE684] + COc1cccc2cc(-c3nc([C@H]4CC[C@H](C(=O)O)CC4)n4ncnc(N)c34)[nH]c12 [OSI-027] (partner 0.5 µM)
In short: as §1

| Cell Line | relative viability (CUDC-101 + Alpelisib; first compound 0.01 µM) | relative viability (CUDC-101 + Alpelisib; first compound 0.03162 µM) | relative viability (CUDC-101 + Alpelisib; first compound 0.1 µM) | relative viability (CUDC-101 + Alpelisib; first compound 0.3162 µM) | relative viability (CUDC-101 + Alpelisib; first compound 1 µM) | relative viability ([1]; first compound 0.005 µM) | relative viability ([1]; first compound 0.01581 µM) | relative viability ([1]; first compound 0.05 µM) | relative viability ([1]; first compound 0.1581 µM) | relative viability ([1]; first compound 0.5 µM) | relative viability ([2]; first compound 0.005 µM) | relative viability ([2]; first compound 0.01581 µM) | relative viability ([2]; first compound 0.05 µM) | relative viability ([2]; first compound 0.1581 µM) | relative viability ([2]; first compound 0.5 µM) | relative viability (NVP-TAE684 + OSI-027; first compound 0.2 µM) | relative viability (NVP-TAE684 + OSI-027; first compound 0.6325 µM) | relative viability (NVP-TAE684 + OSI-027; first compound 2 µM) |
| --- | --- | --- | --- | --- | --- | --- | --- | --- | --- | --- | --- | --- | --- | --- | --- | --- | --- | --- |
| HCC-78 | 0.288 | 0.282 | 0.452 | 0.256 | 0.146 | 0.473 | 0.526 | 0.523 | 0.559 | 0.504 | 0.325 | 0.36 | 0.325 | 0.491 | 0.317 | 0.339 | 0.254 | 0.348 |
| NCI-H727 | 0.59 | 0.478 | 0.698 | 0.595 | 0.295 | 1.07 | 0.73 | 0.922 | 1.03 | 0.809 | 0.793 | 0.803 | 0.739 | 0.836 | 0.529 | 0.68 | 0.411 | 0.372 |
| BEN | 1.21 | 0.887 | 1.17 | 0.848 | 0.737 | 0.658 | 0.557 | 0.684 | 0.847 | 0.858 | 0.668 | 0.924 | 0.82 | 0.785 | 0.806 | 0.27 | 0.311 | 0.265 |
| NCI-H650 | 1.19 | 1.06 | 1.29 | 1.17 | 0.885 | 0.946 |  | 0.993 | 0.942 | 1.1 | 0.484 | 0.67 | 0.568 | 0.672 | 0.704 | 0.441 | 0.458 | 0.332 |
| NCI-H441 | 0.842 | 0.847 | 0.879 | 0.589 | 0.572 |  | 0.902 | 0.913 | 1.1 | 0.908 |  | 0.486 | 0.691 | 0.834 | 0.554 | 0.581 | 0.626 | 0.379 |
| NCI-H1915 | 1.07 | 0.997 | 1.11 | 1.04 | 0.788 | 1.08 | 1.11 | 1.1 | 1.3 | 1.05 | 0.718 | 0.955 | 0.928 | 0.994 | 0.565 | 0.678 | 0.668 | 0.611 |
| HCC-366 | 0.555 | 0.197 | 0.437 | 0.547 | 0.337 | 0.832 | 0.839 | 0.872 | 0.915 | 0.923 | 0.24 | 0.458 | 0.564 | 0.844 | 0.378 | 1.15 | 0.772 | 0.401 |
| LCLC-103H | 0.93 | 0.95 | 1.01 | 1.02 | 0.953 | 0.801 | 0.8 | 0.894 | 0.828 | 0.737 | 1.12 | 1.03 | 1 | 1.13 | 0.964 | 0.445 | 0.467 | 0.372 |
| SK-LU-1 | 1.18 | 1.05 | 1.11 | 0.812 | 0.505 | 0.749 | 0.824 | 0.867 | 0.991 | 0.884 |  | 0.853 | 0.95 | 1.16 | 0.907 | 0.31 | 0.37 | 0.181 |
